Reference: patent US20150368248A1, “2-SUBSTITUTED-6-BIARYLMETHYLAMINO-9-CYCLOPENTYL-9H-PURINE DERIVATIVES, USE THEREOF AS MEDICAMENTS, AND PHARMACEUTICAL COMPOSITIONS” (UNIVERZITA PALACKEHO V OLOMOUCI, priority 2013, published 2015)

Experiments:
[1] = test system: PLC/PRF/5; assay: MTT cytotoxicity assay (Example 30); format: cell-based; settings: Homo sapiens, PLC-PRF-5, 72 h; MTT, three days after drug addition; read-out: Inhibitory concentration IC50, PLC/PRF/5
Protocol: (§1) Cytotoxicity of the compounds is the major property determining their anticancer effect in vivo. One of the parameters used, as the basis for cytotoxicity assays, is the metabolic activity of viable cells.
(§2) We have been using the following cell lines: HUH-7 and PLC/PRF/5 cell lines were maintained in DMEM supplemented with 10% fetal bovine serum, penicillin (100 U/ml) and streptomycin (100 μg/ml). […] HepG2 cell line was maintained in EMEM supplemented with 10% fetal bovine serum, sodium pyruvate (0.11 g/1), penicillin (100 U/ml) and streptomycin (100 μg/ml). All cell lines were cultivated at 37° C. in 5% CO2. For cytotoxicity assays, 3000 cells (10000 cells in case of HepG2 cell line) were seeded into each well of 96 well plate and the next day tested compounds were added at various concentrations in triplicates. Three days after drug addition MTT stock solution (5 mg/ml) was added into each well and incubated for 4 h. After this incubation period, produced formazan was dissolved by DMSO and final absorbance was measured at 570 nm with Synergy H4 Hybrid Multi-Mode Microplate Reader.

[2] = test system: HCC-1.1 (3sp); assay: MTT cytotoxicity assay (Example 30); format: cell-based; settings: Homo sapiens, 72 h; MTT, three days after drug addition; read-out: Inhibitory concentration IC50, 3sp
Protocol: as §1, §2

[3] = test system: HUH-7; assay: MTT cytotoxicity assay (Example 30); format: cell-based; settings: Homo sapiens, Huh-7, 72 h; MTT, three days after drug addition; read-out: Inhibitory concentration IC50, HUH-7
Protocol: as §1, §2

[4] = test system: HCC-1.2 (3p); assay: MTT cytotoxicity assay (Example 30); format: cell-based; settings: Homo sapiens, HCC-1.2, 72 h; MTT, three days after drug addition; read-out: Inhibitory concentration IC50, 3p
Protocol: as §1, §2

[5] = test system: HepG2; assay: MTT cytotoxicity assay (Example 30); format: cell-based; settings: Homo sapiens, HepG2, 72 h; MTT, three days after drug addition; read-out: Inhibitory concentration IC50, HepG2
Source text: Cytotoxicity of the compounds is the major property determining their anticancer effect in vivo. One of the parameters used, as the basis for cytotoxicity assays, is the metabolic activity of viable cells. For example, a microtiter assay, which uses (3-(4,5-Dimethylthiazol-2-yl)-2,5-diphenyltetrazolium bromide (MTT), is widely used to quantitate cell proliferation and cytotoxicity. For instance, this assay is used in drug screening programs and in chemosensitivity testing. Because only metabolically active living cells reduce MTT to correspond purple formazan dye, these assays detect viable cells exclusively. The quantity of reduced MTT corresponds to the number of vital cells in the culture.
We have been using the following cell lines: HUH-7 and PLC/PRF/5 cell lines were maintained in DMEM supplemented with 10% fetal bovine serum, penicillin (100 U/ml) and streptomycin (100 μg/ml). Unique HCC-1.2 (3p) and HCC-1.1 (3sp) cell lines (Zilj et al., 2009, Future Oncol, 5(8):1169-79) and Hep3B cells were cultivated in RPMI supplemented with 10% fetal bovine serum, penicillin (100 U/ml) and streptomycin (100 μg/ml). HepG2 cell line was maintained in EMEM supplemented with 10% fetal bovine serum, sodium pyruvate (0.11 g/1), penicillin (100 U/ml) and streptomycin (100 μg/ml). All cell lines were cultivated at 37° C. in 5% CO2. For cytotoxicity assays, 3000 cells (10000 cells in case of HepG2 cell line) were seeded into each well of 96 well plate and the next day tested compounds were added at various concentrations in triplicates. Three days after drug addition MTT stock solution (5 mg/ml) was added into each well and incubated for 4 h. After this incubation period, produced formazan was dissolved by DMSO and final absorbance was measured at 570 nm with Synergy H4 Hybrid Multi-Mode Microplate Reader.

[6] = test system: caspase-3/7 activity in PLC/PRF/5 cell line; assay: One-step cellular caspase-3/7 activity assay; format: cell-based, human; settings: 24 hours incubation, relative to 0 nM = 1.00
Protocol: (§3) Measurements of proapoptotic properties of new compounds were based on quantification of enzymatic activities of caspases, concretely caspases-3/7. Activity of cellular caspase-3/7 was measured according to Carrasco et al., 2003, BioTechniques, 34(5): 1064-67. Briefly, Hep3B and PLC/PRF/5 cells were incubated in the densities of 10000 cells/well in a 96-well plate overnight. Next day, the compounds in appropriate concentrations were added and cells were incubated for the 24 hours. After incubation, 3× caspase-3/7 assay buffer (150 mM HEPES pH 7.4, 450 mM NaCl, 150 mM KCl, 30 mM MgCl2, 1.2 mM EGTA, 1.5% Nonidet P40, 0.3% CHAPS, 30% sucrose, 30 mM DTT, 3 mM PMSF) with 150 μM Ac-DEVD-AMC as a substrate (Sigma-Aldrich) was added to the wells and plates were incubated at […]. The caspase-3/7 activity was measured after 6 hours using Fluoroskan Ascent microplate reader (Labsystems) at 346 nm/442 nm (excitation/emission).

[7] = test system: caspase-3/7 activity in Hep3B cell line; assay: One-step cellular caspase-3/7 activity assay; format: cell-based, human; settings: 24 hours, 0 nM = 1.00
Protocol: as §3

[8] = test system: p53-regulated transcription in Arn8 cells; assay: p53-dependent transcriptional activity, β-galactosidase reporter; format: cell-based; settings: 24 h incubation
Protocol: Stronger anticancer activity of the compounds is enhanced by its positive impact on stability and activity of the tumour suppressor p53. To measure p53-dependent transcriptional activity, β-galactosidase activity was quantified in the melanoma cell line Arn8, which had been established using stable transfection of cells with a p53-responsive reporter construct pRGCAfoslacZ (Frebung et al., Cancer Res., 52, 1992-6976). Briefly, after 24 h incubation with the inhibitors the Arn8 cells were permeabilized with 0.3% Triton X-100 for 15 min and then 4-methylumbelliferon-β-D-galactopyranoside was added as a substrate to the final concentration of 80 μM. After 1 h the fluorescence of product 4-methylumbelliferon was measured at 355/460 nm (ex/em) with a Fluoroskan Ascent microplate reader (Labsystems). Data in Tab. 8 present that series of 2-substituted-6-biarylmethylamino-9-cyclopentyl-9H-purine derivatives show a dose-dependent activatory effect on p53-regulated transcription, with the maximum impact observed between 100 and 500 nM concentrations for most of prepared compounds (Tab. 8).

COc1ccccc1-c1ccc(CNc2nc(NC3CCC(N)CC3)nc3c2ncn3C2CCCC2)cc1 (stereo not shown) [BP16, N^2-(4-amino-cyclohexyl)-9-cyclopentyl-N^6-(2′-methoxy-biphenyl-4-ylmethyl)-9H-purine-2,6-diamine]
IC50 [1]: 129 nM
IC50 [2]: 767 nM
IC50 [3]: 363 nM
IC50 [4]: 580 nM
IC50 [5]: 937 nM
Relative caspase-3/7 activity in PLC/PRF/5 cell line ([6]; compound concentration 40 nM): 1.01
Relative caspase-3/7 activity in PLC/PRF/5 cell line ([6]; compound concentration 80 nM): 0.73
Relative caspase-3/7 activity in PLC/PRF/5 cell line ([6]; compound concentration 160 nM): 1.15
Relative caspase-3/7 activity in PLC/PRF/5 cell line ([6]; compound concentration 320 nM): 2.42
Relative caspase-3/7 activity in PLC/PRF/5 cell line ([6]; compound concentration 640 nM): >5.00
Relative caspase-3/7 activity in PLC/PRF/5 cell line ([6]; compound concentration 1280 nM): >5.00
Relative caspase-3/7 activity in Hep3B cell line ([7]; 200 nM): 0.93
Relative caspase-3/7 activity in Hep3B cell line ([7]; 400 nM): 1.26
Relative caspase-3/7 activity in Hep3B cell line ([7]; 800 nM): 2.82
Relative caspase-3/7 activity in Hep3B cell line ([7]; 1600 nM): 7.07
Concentration of maximum activation [8]: 943 nM

NC1CCC(Nc2nc(NCc3ccc(-c4ccoc4)nc3)c3ncn(C4CCCC4)c3n2)CC1 (stereo not shown) [BP36, N^2-(4-amino-cyclohexyl)-9-cyclopentyl-N^6-(6-furan-3-yl-pyridin-3-ylmethyl)-9H-purine-2,6-diamine]
IC50 [1]: 18 nM
IC50 [2]: 424 nM
IC50 [3]: 332 nM
IC50 [4]: 258 nM
IC50 [5]: 131 nM
Relative caspase-3/7 activity in PLC/PRF/5 cell line ([6]; compound concentration 40 nM): 2.34
Relative caspase-3/7 activity in PLC/PRF/5 cell line ([6]; compound concentration 80 nM): >5.00
Relative caspase-3/7 activity in PLC/PRF/5 cell line ([6]; compound concentration 160 nM): >5.00
Relative caspase-3/7 activity in PLC/PRF/5 cell line ([6]; compound concentration 320 nM): >5.00
Relative caspase-3/7 activity in PLC/PRF/5 cell line ([6]; compound concentration 640 nM): >5.00
Relative caspase-3/7 activity in PLC/PRF/5 cell line ([6]; compound concentration 1280 nM): >5.00
Relative caspase-3/7 activity in Hep3B cell line ([7]; 100 nM): 2.67
Relative caspase-3/7 activity in Hep3B cell line ([7]; 200 nM): 6.19
Relative caspase-3/7 activity in Hep3B cell line ([7]; 400 nM): 6.55
Relative caspase-3/7 activity in Hep3B cell line ([7]; 800 nM): 9.80
Relative caspase-3/7 activity in Hep3B cell line ([7]; 1600 nM): 9.75
Concentration of maximum activation [8]: 125 nM

NC1CCC(Nc2nc(NCc3ccc(-c4ccsc4)nc3)c3ncn(C4CCCC4)c3n2)CC1 (stereo not shown) [BP35, N^2-(4-amino-cyclohexyl)-9-cyclopentyl-N^6-(6-thiophen-3-yl-pyridin-3-ylmethyl)-9H-purine-2,6-diamine]
IC50 [1]: 37 nM
IC50 [2]: 328 nM
IC50 [3]: 257 nM
IC50 [4]: 218 nM
IC50 [5]: 278 nM
Relative caspase-3/7 activity in PLC/PRF/5 cell line ([6]; compound concentration 40 nM): 1.10
Relative caspase-3/7 activity in PLC/PRF/5 cell line ([6]; compound concentration 80 nM): 2.37
Relative caspase-3/7 activity in PLC/PRF/5 cell line ([6]; compound concentration 160 nM): 2.97
Relative caspase-3/7 activity in PLC/PRF/5 cell line ([6]; compound concentration 320 nM): >5.00
Relative caspase-3/7 activity in PLC/PRF/5 cell line ([6]; compound concentration 640 nM): >5.00
Relative caspase-3/7 activity in PLC/PRF/5 cell line ([6]; compound concentration 1280 nM): >5.00
Relative caspase-3/7 activity in Hep3B cell line ([7]; 200 nM): 1.01
Relative caspase-3/7 activity in Hep3B cell line ([7]; 400 nM): 5.59
Relative caspase-3/7 activity in Hep3B cell line ([7]; 800 nM): 6.07
Relative caspase-3/7 activity in Hep3B cell line ([7]; 1600 nM): 9.10
Concentration of maximum activation [8]: 230 nM
